{
  "source": "patent US9084766B2",
  "about": "“Compounds and compositions for targeting cancer stem cells” (Boston Biomedical, Inc., priority 2010, dated 2015)",
  "key": {"[1]": {"test_system": "FaDu human head and neck cancer", "test": "Antitumor activity in subcutaneous FaDu xenograft mice", "type": "in vivo", "description": "In the studies shown in FIG. 8, immunosuppressed mice with established subcutaneous FaDu human head and neck cancer were given indicated amount of hand grounded Compound 1 with Crystal Form 1, or vehicle control orally (po). Compound 1 was formulated in […]™. All regimens were administered daily (qd). Tumor sizes were evaluated periodically during treatment.\nIn the study shown in FIG. 9, immunosuppressed mice with established subcutaneous FaDu human head and neck cancer were given 100 mg/kg of micronized Compound 1 produced with the synthetic process described in FIGS. 5A and 5B (first crop), or vehicle control orally (po). Compound 1 was formulated in […]™. All regimens were administered daily (qd). Tumor sizes were evaluated periodically during treatment. Form 2 has been successfully manufactured by a current good manufacturing practice (cGMP) process and received approval from the FDA and Health Canada to be used in clinical trials.\nForm 3 can only be generated from Form 1 using a specially designed slurry process described herein. […] In the study shown in FIG. 10, immunosuppressed mice with established subcutaneous FaDu human head and neck cancer were given 200 mg/kg of Compound 1 with hand grounded Crystal Form 1 or Form 3, or vehicle control orally (po). Compound 1 was formulated in gelucire. All regimens were administered daily (qd). Tumor sizes were evaluated periodically during treatment. This polymorph has been successfully manufactured by a cGMP process and received approval from FDA and Health Canada to be used in clinical trials.\nThe anti-tumor activity of particles of Compound 1 with different particle size ranges is illustrated in FIG. 15, and the pharmacokinetic data for particles of Compound 1 with different particle size ranges is illustrated in FIGS. 16-18. In the study shown in FIG. 15, immunosuppressed mice with established subcutaneous FaDu human head and neck cancer were given indicated amount of Compound 1 with indicated particle size, or vehicle control orally (po). All regimens were administered daily (qd). Tumor size was evaluated periodically.\nIn an experiment, a formulation of Compound 1 particles sieved to 160 micron was tested in the model of immunosuppressed mice with established subcutaneous xenograft FaDu human head and neck cancer. The pharmaceutical composition was formulated as 80 mg/ml in 9% Gelucire, 20% Vitamin E TPGS (Table 3). […] All regimens were administered daily (qd).\nIn an experiment, Compound 1 crystals were milled to a median particle size of about 20 micron. […] All regimens were administered daily (qd).\nFaDu human head and neck cancer cells were inoculated subcutaneously into female athymic nude mice (6×10^6 cells/mouse) and allowed to form palpable tumors. When the tumors reached approximately 100 mm^3, the animals were treated orally (po) with Compound 1 at 100 mg/kg or vehicle control daily. Compound 1 was formulated at 10 mg/ml in 20% gelucire. Tumors and bodyweights were measured throughout treatment (FIG. 15).\nDaily examinations into the health status of each animal were also conducted. Body weights were checked every three days. Food and water was supplied daily according to the animal husbandry procedures of the facility. Treatment producing>20% lethality and or >20% net body weight loss were considered toxic. Results are expressed as mean tumor volume (mm^3)±SE. P Values<0.05 are considered to be statistically relevant.\nMale or female athymic nude mice 4-5 weeks (Charles River Laboratories, Wilmington, Mass.), were acclimated to the animal housing facility for at least 1 week before study initiation. […]"}, "[2]": {"test_system": "advanced solid tumors", "test": "Phase I clinical trial: tumor response (RECIST 1.1) and progression free survival", "type": "in vivo, human", "settings": "clinical trials", "excerpt": "As of Feb. 7, 2011, 42 cancer patients with various advanced solid tumors who have failed chemotherapies were enrolled in the study.\nOf the 42 patients dosed, 24 were evaluable for tumor response as of Feb. 7, 2011; 16 (16/24 evaluable patients) achieved stable disease (8 to 75+ weeks)."}, "[3]": {"test": "Phase I clinical trial: plasma pharmacokinetics", "type": "in vivo, human", "settings": "clinical trials (FIG. 11, FIG. 12)", "description": "A favorable PK profile with oral bid dosing was also observed. The plasma concentration reached several folds over efficacious concentration (in vitro IC50).\nIn yet another suitable dosing regimen, Compound 1 is administered with food which delays the Tmax (Table 13)."}},
  "note": "“Also recorded” adds a separate entry of the source.",
  "data": [
    {"compound": "CC(=O)c1cc2c(o1)C(=O)c1ccccc1C2=O", "note": "[Crystal Form 2, 2-acetyl-4H,9H-naphtho[2,3-b]furan-4,9-dione]", "values": [
      {"measurement": "anti-tumor activity", "setting": "[1]; 100 mg/kg micronized (first crop) in GELUCIRE, po qd (FIG. 9)", "value": "potent anti-tumor activity"},
      {"measurement": "anti-tumor activity in cancer patients", "setting": "[2]", "value": "strong signs of anti-tumor activity"},
      {"measurement": "pharmacokinetics in cancer patients", "setting": "[3]", "value": "desirable pharmacokinetics"}
    ]},
    {"compound": "CC(=O)c1cc2c(o1)C(=O)c1ccccc1C2=O", "note": "[Crystal Form 3, 2-acetyl-4H,9H-naphtho[2,3-b]furan-4,9-dione]", "values": [
      {"measurement": "antitumor activities", "setting": "[1]; 200 mg/kg hand grounded, in gelucire, po qd (FIG. 10)", "value": "potent antitumor activities"}
    ]},
    {"compound": "CC(=O)c1cc2c(o1)C(=O)c1ccccc1C2=O", "note": "[Crystal Form 1, 2-acetyl-4H,9H-naphtho[2,3-b]furan-4,9-dione]", "values": [
      {"measurement": "anti-tumor activity", "setting": "[1]; hand grounded Crystal Form 1 in GELUCIRE, po qd (FIG. 8)", "value": "limited anti-tumor activity; also recorded: low anti-tumor activity"}
    ]}
  ]
}
